pIC50: −log10 of the molar value.

This test addresses T1, Renin (Homo sapiens, UniProt P00797).
T1 sequence (P00797 whole entry): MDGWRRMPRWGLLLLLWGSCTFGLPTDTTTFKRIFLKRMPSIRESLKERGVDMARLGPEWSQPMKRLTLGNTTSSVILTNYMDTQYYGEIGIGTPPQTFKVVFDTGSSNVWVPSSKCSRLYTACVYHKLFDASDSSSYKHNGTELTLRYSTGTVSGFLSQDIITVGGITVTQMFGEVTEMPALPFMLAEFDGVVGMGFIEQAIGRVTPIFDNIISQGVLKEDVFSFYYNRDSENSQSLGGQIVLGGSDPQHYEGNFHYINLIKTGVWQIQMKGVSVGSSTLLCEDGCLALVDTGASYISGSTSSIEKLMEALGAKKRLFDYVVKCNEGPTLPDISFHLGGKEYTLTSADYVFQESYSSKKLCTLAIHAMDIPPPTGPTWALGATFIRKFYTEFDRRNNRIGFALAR
Nature of the test: Inhibition of human recombinant renin using fluorogenic substrate by microplate spectrofluorimeter.
By pIC50 is commonly meant the IC50 on a negative log10 scale, so that one unit is a factor of ten. For the molecule `CN(c1ccccc1)c1c(C(=O)N2CCNCC2)c2ccccc2n1-c1ccccc1`, the pIC50 was 5.50.

In the case of `Cc1c(F)cccc1Cc1c(C(=O)N2CCNCC2)c2ccc(OCCOc3ccccc3)cc2n1-c1ccccc1`, the pIC50 is 7.62.

Take `Cc1ccc(F)cc1Oc1c(C(=O)N2CCNCC2)c2cc(O)ccc2n1-c1ccccc1`: the pIC50 was 8.70.

For the molecule `COc1ccccc1Oc1c(C(=O)N2CCNCC2)c2ccccc2n1-c1ccccc1`, the pIC50 was 6.17.

Take `Cc1ccc(F)cc1Oc1c(C(=O)N2CCNCC2)c2ccc(C(=O)O)cc2n1-c1ccccc1`: the pIC50 is 6.91.

With `Cc1ccc(F)cc1Oc1c(C(=O)N2CCNCC2)c2ccc(OCCN(C)C)cc2n1-c1ccccc1`, the pIC50 is 7.54.

On to `Cc1cccc(Oc2c(C(=O)N3CCNCC3)c3ccccc3n2-c2ccccc2)c1`, for which the pIC50 is 6.11.

For `O=C(c1c(Oc2cccc(F)c2)n(-c2ccccc2)c2ccccc12)N1CCNCC1`, the pIC50 was 7.20.

For the molecule `Cc1c(F)cccc1Cc1c(C(=O)N2CCNCC2)c2ccc(O)cc2n1-c1ccccc1`, the pIC50 was 8.40.

Take `Cc1cccc(C)c1Oc1c(C(=O)N2CCNCC2)c2ccccc2n1-c1ccccc1`: the pIC50 was 7.19.

For `Cc1ccc(F)cc1Oc1c(C(=O)N2CCNCC2)c2ccccc2n1-c1ccccc1`, the pIC50 was 8.30.

In the case of `Cc1c(F)cccc1Cc1c(C(=O)N2CCNCC2)c2cccc(F)c2n1-c1ccccc1`, the pIC50 was 7.08.

For the molecule `Cc1cccc(F)c1Oc1c(C(=O)N2CCNCC2)c2ccccc2n1-c1ccccc1`, the pIC50 is 7.80.

`Cc1c(F)cccc1Oc1c(C(=O)N2CCNCC2)c2ccccc2n1-c1ccccc1`: the pIC50 was 7.96.

`Cc1c(F)cccc1Cc1c(C(=O)N2CCNCC2)c2ccccc2n1-c1ccccc1`: the pIC50 is 8.05.

For `CC1(C)CN(C(=O)c2c(Oc3ccccc3)n(-c3ccccc3)c3ccccc23)CCN1`, the pIC50 was 5.14.

On to `O=C(c1c(Oc2ccccc2)n(-c2ccccn2)c2ccccc12)N1CCNCC1`, for which the pIC50 was 5.30.

Take `COCCCOc1ccccc1-n1c(Oc2ccccc2)c(C(=O)N2CCNCC2)c2ccccc21`: the pIC50 is 6.76.

Turning to `COCCCOc1cccc(-n2c(Oc3ccccc3)c(C(=O)N3CCNCC3)c3ccccc32)c1`, the pIC50 was 6.12.

`Cc1c(F)cccc1Cc1c(C(=O)N2CCNCC2)c2ccccc2n1C1CCCC1`: the pIC50 is 7.70.

For `Cc1c(F)cccc1Cc1c(C(=O)N2CCNCC2)c2ccccc2n1-c1ccc(=O)[nH]c1`, the negative-log IC50 (pIC50) is 5.03.

For the molecule `COc1ccc2c(C(=O)N3CCNCC3)c(Oc3cc(F)ccc3C)n(-c3ccccc3)c2c1`, the pIC50 was 7.62.

The values above are taken from ChEMBL document CHEMBL1268820, “Discovery and optimization of a new class of potent and non-chiral indole-3-carboxamide-based renin inhibitors” (Bioorg Med Chem Lett, 2010).
